Assay results as given in US8623844B2, “Fosaprepitant dimeglumine intermediate, neutral fosaprepitant, and amorphous fosaprepitant dimeglumine and processes for their preparations” (priority 2008, dated 2014).

Key:
[1] = cited from earlier work
[2] = Stability studies of amorphous form, series of XRPD spectra (FIG. 7); format: physicochemical; conditions: about 2° C. to about 8° C., relative humidity less than about 60%, about 7 days to about 2 months
Procedure: The diffractogram was obtained using a Powder X-ray Diffractometer (Philips X'Pert Pro, PANalytical®) with a Cu radiation of λ=1.540598Å. The measurements were carried out from 2 degrees to 50 degrees with times per step of 50 seconds.
The stability data, shown as series of XRPD scans, are substantially in accordance with FIG. 7.

CNC[C@H](O)[C@@H](O)[C@H](O)[C@H](O)CO.CNC[C@H](O)[C@@H](O)[C@H](O)[C@H](O)CO.C[C@@H](O[C@H]1OCCN(Cc2nn(P(=O)(O)O)c(=O)[nH]2)[C@H]1c1ccc(F)cc1)c1cc(C(F)(F)F)cc(C(F)(F)F)c1
degradation on storage ([1]; normal ambient temperatures, stored at −20° C. to avoid degradation, J. Med. Chem. 2000, 43, 1234-1241): degrades at normal ambient temperatures | stability of amorphous form on exposure ([1]; normal room temperature, as well as about 2° C.-8° C., transforms into crystalline form): loses its stability

CNC[C@H](O)[C@@H](O)[C@H](O)[C@H](O)CO.CNC[C@H](O)[C@@H](O)[C@H](O)[C@H](O)CO.C[C@@H](O[C@H]1OCCN(Cc2nc(=O)n(P(=O)(O)O)[nH]2)[C@H]1c1ccc(F)cc1)c1cc(C(F)(F)F)cc(C(F)(F)F)c1 [amorphous fosaprepitant dimeglumine, 1-deoxy-1-(methylamino)-D-glucitol[3-[[(2R,3S)-2-[(1R)-1-[3,5-bis(trifluoromethyl)phenyl]-ethoxy]-3-(4-fluorophenyl)-4-morpholinyl]methyl]-2,5-dihydro-5-oxo-1H-1,2,4-triazol-1-yl]phosphonate (2:1) (salt)]
stability of amorphous polymorphic form (XRPD) [2]: substantially stable
